Laboratory results: US11427549B2, “Pyrimidinyloxy benzo-fused compounds as herbicides” (FMC Corporation, priority 2017, dated 2022)

How the values were obtained:
[1] = system: barnyardgrass (Echinochloa crus-galli); assay: Test A preemergence, barnyardgrass; type: in vivo; conditions: Echinochloa crus-galli, pre-emergence, 240 h, 0 to 100 scale (0 no effect, 100 complete control), read-out: Plant response rating, Barnyardgrass; for pest or weed control at 31 g/ha: 31 g ai/ha; for pest or weed control at 125 g/ha: 125 g ai/ha
kochia (Kochia scoparia) [2] = assay: Test A preemergence, kochia; type: in vivo; conditions: Bassia scoparia, pre-emergence, 240 h, 0 to 100 scale (0 no effect, 100 complete control), read-out: Plant response rating, Kochia; for pest or weed control at 31 g/ha: 31 g ai/ha; for pest or weed control at 125 g/ha: 125 g ai/ha
[3] = system: ragweed (common ragweed, Ambrosia elatior); assay: Test A preemergence, ragweed; type: in vivo; conditions: Ambrosia artemisiifolia, pre-emergence, 240 h, 0 to 100 scale (0 no effect, 100 complete control), read-out: Plant response rating, Ragweed; for pest or weed control at 31 g/ha: 31 g ai/ha; for pest or weed control at 125 g/ha: 125 g ai/ha
[4] = system: ryegrass, Italian (Italian ryegrass, Lolium multiflorum); assay: Test A preemergence, ryegrass, Italian; type: in vivo; conditions: Lolium multiflorum, pre-emergence, 240 h, 0 to 100 scale (0 no effect, 100 complete control), read-out: Plant response rating, Ryegrass, Italian; for pest or weed control at 31 g/ha: 31 g ai/ha; for pest or weed control at 125 g/ha: 125 g ai/ha
[5] = system: foxtail, green (green foxtail, Setaria viridis); assay: Test A preemergence, foxtail, green; type: in vivo; conditions: Setaria, pre-emergence, 240 h, 0 to 100 scale (0 no effect, 100 complete control), read-out: Plant response rating, Foxtail, Green; for pest or weed control at 31 g/ha: 31 g ai/ha; for pest or weed control at 125 g/ha: 125 g ai/ha
[6] = system: pigweed (Amaranthus retroflexus); assay: Test A preemergence, pigweed; type: in vivo; conditions: Amaranthus retroflexus, pre-emergence, 240 h, 0 to 100 scale (0 no effect, 100 complete control), read-out: Plant response rating, Pigweed; for pest or weed control at 31 g/ha: 31 g ai/ha; for pest or weed control at 125 g/ha: 125 g ai/ha
[7] = system: barnyardgrass (Echinochloa crus-galli); assay: Test A postemergence, barnyardgrass; type: in vivo; conditions: Echinochloa crus-galli, post-emergence, 240 h, 0 to 100 scale (0 no effect, 100 complete control), read-out: Plant response rating, Barnyardgrass; for pest or weed control at 31 g/ha: 31 g ai/ha; for pest or weed control at 125 g/ha: 125 g ai/ha
kochia (Kochia scoparia) [8] = assay: Test A postemergence, kochia; type: in vivo; conditions: Bassia scoparia, post-emergence, 240 h, 0 to 100 scale (0 no effect, 100 complete control), read-out: Plant response rating, Kochia; for pest or weed control at 31 g/ha: 31 g ai/ha; for pest or weed control at 125 g/ha: 125 g ai/ha
[9] = system: ragweed (common ragweed, Ambrosia elatior); assay: Test A postemergence, ragweed; type: in vivo; conditions: Ambrosia artemisiifolia, post-emergence, 240 h, 0 to 100 scale (0 no effect, 100 complete control), read-out: Plant response rating, Ragweed; for pest or weed control at 31 g/ha: 31 g ai/ha; for pest or weed control at 125 g/ha: 125 g ai/ha
[10] = system: ryegrass, Italian (Italian ryegrass, Lolium multiflorum); assay: Test A postemergence, ryegrass, Italian; type: in vivo; conditions: Lolium multiflorum, post-emergence, 240 h, 0 to 100 scale (0 no effect, 100 complete control), read-out: Plant response rating, Ryegrass, Italian; for pest or weed control at 31 g/ha: 31 g ai/ha; for pest or weed control at 125 g/ha: 125 g ai/ha
[11] = system: pigweed (Amaranthus retroflexus); assay: Test A postemergence, pigweed; type: in vivo; conditions: Amaranthus retroflexus, post-emergence, 240 h, 0 to 100 scale (0 no effect, 100 complete control), read-out: Plant response rating, Pigweed; for pest or weed control at 31 g/ha: 31 g ai/ha; for pest or weed control at 125 g/ha: 125 g ai/ha
[12] = system: wheat (Triticum aestivum); assay: Test A postemergence, wheat; type: in vivo; conditions: Triticum aestivum, post-emergence, 240 h, 0 to 100 scale (0 no effect, 100 complete control), read-out: Plant response rating, Wheat; for plant injury at 31 g/ha: 31 g ai/ha; for plant injury at 125 g/ha: 125 g ai/ha
corn (Zea mays) = assay: Test A postemergence, corn; type: in vivo; conditions: Zea mays, post-emergence, 240 h, 0 to 100 scale (0 no effect, 100 complete control); for Corn plant response rating (crop injury, 0 = no effect, 100 = complete kill) at 31 g/ha: 31 g ai/ha; for Corn plant response rating (crop injury, 0 = no effect, 100 = complete kill) at 125 g/ha: 125 g ai/ha
[13] = system: blackgrass (Alopecurus myosuroides); assay: Test A postemergence, blackgrass; type: in vivo; conditions: Alopecurus myosuroides, post-emergence, 240 h, 0 to 100 scale (0 no effect, 100 complete control), read-out: Plant response rating, Blackgrass; for pest or weed control at 31 g/ha: 31 g ai/ha; for pest or weed control at 125 g/ha: 125 g ai/ha
[14] = system: galium (catchweed bedstraw, Galium aparine); assay: Test A postemergence, galium; type: in vivo; conditions: Galium, post-emergence, 240 h, 0 to 100 scale (0 no effect, 100 complete control), read-out: Plant response rating, Galium; for pest or weed control at 31 g/ha: 31 g ai/ha; for pest or weed control at 125 g/ha: 125 g ai/ha
rice (Oryza sativa) = assay: Test B flooded paddy test, rice; conditions: Oryza sativa, read-out: Plant response rating, Rice (0 to 100 scale, 0 is no effect, 100 is complete control)
[15] = system: ducksalad (Heteranthera limosa); assay: Test B flooded paddy test, ducksalad; conditions: Heteranthera limosa, read-out: Plant response rating, Ducksalad (0 to 100 scale, 0 is no effect, 100 is complete control)
[16] = system: barnyardgrass (Echinochloa crus-galli); assay: Test B flooded paddy test, barnyardgrass; conditions: Echinochloa crus-galli, read-out: Plant response rating, Barnyardgrass (0 to 100 scale, 0 is no effect, 100 is complete control)

| Compound | pest or weed control at 31 g/ha [1] [%] | pest or weed control at 125 g/ha [1] [%] | pest or weed control at 31 g/ha (kochia (Kochia scoparia) [2]) [%] | pest or weed control at 125 g/ha (kochia (Kochia scoparia) [2]) [%] | pest or weed control at 31 g/ha [3] [%] | pest or weed control at 125 g/ha [3] [%] | pest or weed control at 31 g/ha [4] [%] | pest or weed control at 125 g/ha [4] [%] | pest or weed control at 31 g/ha [5] [%] | pest or weed control at 125 g/ha [5] [%] | pest or weed control at 31 g/ha [6] [%] | pest or weed control at 125 g/ha [6] [%] | pest or weed control at 31 g/ha [7] [%] | pest or weed control at 125 g/ha [7] [%] | pest or weed control at 31 g/ha (kochia (Kochia scoparia) [8]) [%] | pest or weed control at 125 g/ha (kochia (Kochia scoparia) [8]) [%] | pest or weed control at 31 g/ha [9] [%] | pest or weed control at 125 g/ha [9] [%] | pest or weed control at 31 g/ha [10] [%] | pest or weed control at 125 g/ha [10] [%] | other results |
| --- | --- | --- | --- | --- | --- | --- | --- | --- | --- | --- | --- | --- | --- | --- | --- | --- | --- | --- | --- | --- | --- |
| FC(F)(F)CCCC1CCc2cccc(Oc3ncc(Cl)cn3)c21 (stereo not drawn) [Compound 9, 5-Chloro-2-[[2,3-dihydro-3-(4,4,4-trifluorobutyl)-1H-inden-4-yl]oxy]pyrimidine] | 10 | 90 | 10 | 50 | 0 | 10 | 10 | 50 | 70 | 100 | 10 | 100 | 20 | 50 | 50 | 80 | 0 | 10 | 10 | 30 | pest or weed control at 31 g/ha [11]: 80%; pest or weed control at 125 g/ha [11]: 100%; plant injury at 31 g/ha [12]: 10%; plant injury at 125 g/ha [12]: 20%; Corn plant response rating (crop injury, 0 = no effect, 100 = complete kill) at 31 g/ha (corn (Zea mays)): 20%; Corn plant response rating (crop injury, 0 = no effect, 100 = complete kill) at 125 g/ha (corn (Zea mays)): 30%; pest or weed control at 31 g/ha [13]: 20%; pest or weed control at 125 g/ha [13]: 80%; pest or weed control at 31 g/ha [14]: 20%; pest or weed control at 125 g/ha [14]: 30%; plant injury at 250 g/ha (rice (Oryza sativa)): 50%; pest or weed control at 250 g/ha [15]: 100%; pest or weed control at 250 g/ha [16]: 70% |
| OC1CC(CCCC(F)(F)F)c2c(Oc3ncc(Cl)cn3)cccc21 (stereo not drawn) [Compound 10, 4-[(5-Chloro-2-pyrimidinyl)oxy]-2,3-dihydro-3-(4,4,4-trifluorobutyl)-1H-inden-1-ol] | 10 | 70 | 0 | 30 | 0 | 0 | 10 | 30 | 60 | 90 | 100 | 100 | 10 | 40 | 10 | 60 | 0 | 10 | 0 | 30 | pest or weed control at 31 g/ha [11]: 50%; pest or weed control at 125 g/ha [11]: 90%; plant injury at 31 g/ha [12]: 0%; plant injury at 125 g/ha [12]: 10%; Corn plant response rating (crop injury, 0 = no effect, 100 = complete kill) at 31 g/ha (corn (Zea mays)): 10%; Corn plant response rating (crop injury, 0 = no effect, 100 = complete kill) at 125 g/ha (corn (Zea mays)): 30%; pest or weed control at 31 g/ha [13]: 10%; pest or weed control at 125 g/ha [13]: 20%; pest or weed control at 31 g/ha [14]: 10%; pest or weed control at 125 g/ha [14]: 20%; plant injury at 250 g/ha (rice (Oryza sativa)): 25%; pest or weed control at 250 g/ha [15]: 95%; pest or weed control at 250 g/ha [16]: 45% |
